In patent US20240287132A1, “PEPTIDE, COMPOSITION, AND GHRELIN SECRETION PROMOTING AGENT” (KYOTO UNIVERSITY, priority 2019, published 2024):

What was measured:
[1] = test system: male ddY mice; experiment: Evaluation 2 of eating behavior of mice (feed intake over 2 hours); type: in vivo; conditions: 7 weeks old male ddY mice, single oral dose 1 mg/kg, 2 hours after feeding, FIG. 6, *: P<0.05 relative to the control
Experimental: Mice (7 weeks old male ddY mice acclimated for at least 1 week before use after being purchased) were orally administered with a single dose of a saline solution of each peptide (1 mg/kg). Subsequently, a previously weighed feed (CE-2 (trade name) manufactured by CLEA Japan, Inc.) was given to the mice, and 2 hours after the feeding, the weight of the remaining feed was measured. A control test was also carried out in which the same procedure was carried out as shown above except that a single dose of saline was orally administered instead of each peptide. The amount of feed intake (g/2 hours) was defined as the difference between the weight of the feed given to the mice and the weight of the feed remaining 2 hours after the feeding. Based on the results, the amount of feed intake in the control group was normalized to 100, and the amount of feed intake in each group was calculated relative to 100. The results are shown in FIG. 6 (n=7 to 18, *: P<0.05 relative to the control).

[2] = test system: Ghrelin-secreting cells (MGN3-1); experiment: Ghrelin secretion activity evaluation (ghrelin in medium, ELISA); type: cell-based; conditions: MGN3-1 cells; for ghrelin secretion (ghrelin concentration in medium): peptide concentration 0.01, 0.1, or 1 mM, FIG. 2, n=4; for significance of ghrelin secretion promoting effect: peptide concentration of 1 mM or more, FIG. 2
Experimental: (§1) Ghrelin-secreting cells (MGN3-1) were seeded at 1×10^5 cells/well onto a 96-well plate and cultured in a sodium octanoate/DMEM medium at 37° C. for 24 hours. After the cultivation, the cells were washed with DPBS. A buffer solution of each peptide was prepared and, 100 μL of the buffer solution (with a peptide concentration of 1 mg/mL or 10 mg/mL) was added to the cells. The cells were further cultured at 37° C. for 4 hours. The buffer used contained 50 μM of sodium octanoate in DMEM.
Unless otherwise stated, all tests shown below were performed using, as a control, a culture obtained in the same manner as shown above except that only the buffer was added instead of the buffer solution of the peptide.
After the cultivation, the medium sample was collected and centrifuged to give a supernatant. Subsequently, 10 μL of 1 N HCl was added to the supernatant, and the resulting sample was stored at −80° C. until it was subjected to the ghrelin concentration measurement shown below.
The concentration of ghrelin in each medium sample was measured using an ELISA kit (Ghrelin (Acylated) EIA Kit A05117 (trade name) manufactured by Bertin Pharma SAS). The results shown in FIG. 1 are values relative to the measured value of the control.
The two peptides were evaluated for their effect on ghrelin secretion by the same method as shown above (Ghrelin Secretion Activity Evaluation 1).

[3] = test system: Ghrelin-secreting cells (MGN3-1); experiment: Intracellular ghrelin level (Ghrelin Secretion Activity Evaluation 3); type: cell-based; conditions: MGN3-1 cells, FIG. 3A, n=4 or 5
Experimental: as §1
The peptide of SEQ ID NO: 1 was evaluated for its effect on ghrelin secretion (intracellular ghrelin level) by the same method as shown above (Ghrelin Secretion Activity Evaluation 1).

[4] = test system: ghrelin synthesis-related genes (Preproghrelin, GOAT, and PC3); experiment: Evaluation of ghrelin synthesis-related gene expression (qPCR); type: cell-based; conditions: MGN3-1 cells, FIGS. 3B, 3C, 3D, n=4 or 5
Experimental: The expression levels of the three, ghrelin synthesis-related genes (Preproghrelin, GOAT, and PC3) in the cells obtained after the completion of the cultivation shown above (Ghrelin Secretion Activity Evaluation 1) were measured by the method shown below. First, mRNA was extracted from the cells using RNeasy Mini Kit (manufactured by QIA-GEN) and Takara PrimeScript RT Master Mix (manufactured by Takara Bio Inc.). Subsequently, the mRNA expression level was measured through the amplification of cDNA using LightCycler 96 System (manufactured by Roche Diagnostics K.K.) and THUNDERBIRD qPCR Mix (manufactured by Toyobo Co., Ltd.). The results are shown in FIG. 3B (Preproghrelin), FIG. 3C (GOAT), and FIG. 3D (PC3) (n=4 or 5).

[5] = test system: Ghrelin-secreting cells (MGN3-1); experiment: Evaluation of intracellular CAMP level; type: cell-based; conditions: MGN3-1 cells, 0.5 mM IBMX, 37° C. 30 minutes, FIG. 4
Experimental: Ghrelin-secreting cells (MGN3-1) were […] in a Krebs-Ringer-HEPES buffer containing 0.5 mM IBMX. After the mixture was incubated at 37° C. for 30 minutes, the intracellular CAMP was quantified using HitHunter CAMP Assay for Small Molecules (manufactured by DiscoveRx).

[6] = test system: Ghrelin-secreting cells (MGN3-1); experiment: Evaluation of intracellular calcium ion level; type: cell-based; conditions: data not shown
Experimental: The intracellular calcium ion level was measured using Calcium Kit II-Fluo 4 (Dojindo Laboratories) and a multi-plate reader (manufactured by BMG LABTECH GmbH, Aex: 485 nm, Xem: 520 nm).

[7] = test system: male ddY mice; experiment: Evaluation 1 of eating behavior of mice (feed intake over 4 hours); type: in vivo; conditions: 11 weeks old male ddY mice, single oral dose 1 mg/kg, 4 hours after feeding, vs saline control, FIG. 5A
Experimental: Mice (11 weeks old male ddY mice) were orally administered with a single dose of a saline solution of the peptide of SEQ ID NO: 1 (1 mg/kg). Subsequently, a previously weighed feed (CE-2 (trade name) manufactured by CLEA Japan, Inc.) was given to the mice, and 4 hours after the feeding, the weight of the remaining feed was measured. A control test was also carried out in which the same procedure was carried out as shown above except that a single dose of saline was orally administered instead of the peptide of SEQ ID NO: 1. The amount of feed intake (g/4 hours) was defined as the difference between the weight of the feed given to the mice and the weight of the feed remaining 4 hours after the feeding.

[8] = test system: male ddY mice; experiment: Evaluation of mouse serum ghrelin level; type: in vivo; conditions: 11 weeks old male ddY mice, 0.3 mg/kg, 1 hour after administration, FIG. 5B
Experimental: Mice (11 weeks old male ddY mice) were administered with a saline solution of the peptide of SEQ ID NO: 1 (0.3 mg/kg). Subsequently, 1 hour after the administration, blood was collected from the orbital vein of the mice and centrifuged at 4° C. at 1,120×g for 10 minutes. The resulting supernatant was acidified with 1 N HCl and then measured for serum ghrelin level (pg/ml) using an acylated ghrelin enzyme immunoassay kit.

Row | Substance | amount of feed intake relative to control (control normalized to 100) [1] | ghrelin secretion (ghrelin concentration in medium) [2] | significance of ghrelin secretion promoting effect [2] | other results
1 | HSPR [SEQ ID NO: 6] | significantly increased | – | – | –
2 | QAFE [SEQ ID NO: 3] | significantly increased | – | – | –
3 | QAFEPIRSV [SEQ ID NO: 1] | increased | ghrelin secretion promoting effect | significant | extracellular ghrelin level ([2]; data not shown): increased; intracellular ghrelin level [3]: tendency to reduce; expression levels of the ghrelin synthesis-related genes (Preproghrelin, GOAT, PC3 mRNA) [4]: not found to change; intracellular CAMP level [5]: no effect; intracellular calcium ion level [6]: no effect; amount of feed intake [7]: increased; serum ghrelin level [8]: increased
4 | QGSF [SEQ ID NO: 7] | significantly increased | – | – | –
5 | TNPW [SEQ ID NO: 5] | significantly increased | – | – | –
6 | TNPWHSPROGSF (TNPWHSPRQGSF) [SEQ ID NO: 2] | increased | ghrelin secretion promoting effect | significant | –
